We go through 21 molecules from PubChem BioAssay (NCI).

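A five-concentration, 48-hour dose response in 96-well plates underlies each endpoint, interpolated linearly between surrounding concentrations. TGI is the concentration that stops growth completely.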

In one experiment the test system is SNB-19 CNS. The experiment in a line: NCI anticancer screen, dose series, 48 h.
`CC1(C)OCN(c2ccc(N3CCOCC3)cc2)Cn2c1nc1ccccc12` yielded a TGI greater than 100 µM.

As for `CC1C2CC(C(S(=O)(=O)O)C2=O)C1(C)C` (stereo not drawn), the TGI was greater than 100 µM.

The molecule `CN(C)/C=C/C(=CC=[N+](C)C)/C=C/N(C)C` registered a TGI greater than 100 µM.

`CNC1(c2cc3ccccc3s2)CCCCC1` gave a TGI greater than 100 µM.

In turn, `N#C[S-].[La+3].c1cnc2c(c1)ccc1cccnc12.c1cnc2c(c1)ccc1cccnc12.c1cnc2c(c1)ccc1cccnc12` gave a TGI of 20.9 µM.

`CNc1ncccc1Nc1cc(=O)n2c3cccnc3n(C)c2c1` yielded a TGI greater than 100 µM.

For `CC1(C)C2CCC1(C)C(N/C(Sc1ccccc1)=C(/C(Cl)=C(Cl)Cl)[N+](=O)[O-])C2` (stereo not drawn), the TGI was found to be 43.9 µM.

In turn, `COC(=O)[C@@H]1C[C@H]2OC(=O)CC[C@]2(C)O[C@H]1[C@H]1O[C@@](C)(O)CCC[C@H]1C` yielded a TGI greater than 50 µM.

As for `O=S(Cc1ccccc1)c1nc2ccccc2nc1-c1cccs1` (stereo not drawn), the TGI is 39.4 µM.

Molecule `CN(/N=C/c1ccc(C(=O)O)cc1)C1=NCCCCN1` returned a TGI greater than 100 µM.

Molecule `C=C(C)C1CCC(C(=O)O)CC1` (stereo not drawn) registered a TGI greater than 100 µM.

`O=c1[nH]c2cc(C(F)(F)F)ccc2nc1C(F)(F)F` had a TGI greater than 100 µM.

In the case of `C=CC[C@]1(/C=N/O)CN(S(=O)(=O)CC[Si](C)(C)C)C[C@H]2CC=CC[C@H]21`, the TGI was 42.3 µM.

In turn, `CCOC(=O)Nc1cc2c(c(N)n1)N=C(c1ccc(OC)cc1)CN2` had a TGI of 0.659 µM.

The molecule `CCN1C[C@]2(C)CC[C@H](O)C34C1C(C[C@@H]32)[C@@]1(O)CC[C@H]2C[C@@H]4[C@@H]1[C@H]2O` displayed a TGI greater than 100 µM.

In turn, `CCC(CC)NC1=C(NC(C)=O)C(=O)c2ccccc2C1=O` came in with a TGI greater than 50 µM.

Regarding `COc1ccc(-c2c(C(C)=O)c(-c3ccccc3)n(C3OC(CO)C(O)C(O)C3O)c(=S)c2C#N)cc1` (stereo not drawn), the TGI is greater than 100 µM.

Take `CCCCCCCC(CC(=O)NC(CO)C(=O)NC(CO)CC(C)C)OC(=O)CC(CCCCCCC)OC(=O)CC(CCCCCCC)OC1OC(C)C(O)C(OC2OC(C)C(OC(C)=O)C(O)C2O)C1O` (stereo not drawn): the TGI was found to be 18.3 µM.

In turn, `CC1(c2cccc(C3CC4(CCC3=O)OCCCCO4)c2)OCCO1` (stereo not drawn) registered a TGI greater than 100 µM.

The test system of the next experiment is HS 578T breast. The experiment in a line: NCI anticancer screen, dose series, 48 h.
`CC1C2CC(C(S(=O)(=O)O)C2=O)C1(C)C` (stereo not drawn) returned a TGI greater than 100 µM.

Take `COC(=O)[C@@H]1C[C@H]2OC(=O)CC[C@]2(C)O[C@H]1[C@H]1O[C@@](C)(O)CCC[C@H]1C`: the TGI is greater than 50 µM.

The molecule `C=C(C)C1CCC(C(=O)O)CC1` (stereo not drawn) gave a TGI greater than 100 µM.

For `CCOC(=O)Nc1cc2c(c(N)n1)N=C(c1ccc(OC)cc1)CN2`, the TGI stood at 0.00932 µM.

In turn, `CCCCCCCC(CC(=O)NC(CO)C(=O)NC(CO)CC(C)C)OC(=O)CC(CCCCCCC)OC(=O)CC(CCCCCCC)OC1OC(C)C(O)C(OC2OC(C)C(OC(C)=O)C(O)C2O)C1O` (stereo not drawn) yielded a TGI of 18.7 µM.

The test system of the next experiment is NCI/ADR-RES ovarian. The experiment in a line: NCI anticancer screen, dose series, 48 h.
The molecule `CNC1(c2cc3ccccc3s2)CCCCC1` displayed a TGI greater than 100 µM.

In the case of `CNc1ncccc1Nc1cc(=O)n2c3cccnc3n(C)c2c1`, the TGI is greater than 100 µM.

On to `CC1(C)C2CCC1(C)C(N/C(Sc1ccccc1)=C(/C(Cl)=C(Cl)Cl)[N+](=O)[O-])C2` (stereo not drawn), for which the TGI came to 30.5 µM.

The molecule `CN(/N=C/c1ccc(C(=O)O)cc1)C1=NCCCCN1` displayed a TGI greater than 100 µM.

On to `Cc1c(N2C(=O)C(Cl)C2/C=C/c2ccccc2)c(=O)n(-c2ccccc2)n1C` (stereo not drawn), for which the TGI is greater than 100 µM.

In turn, `O=c1[nH]c2cc(C(F)(F)F)ccc2nc1C(F)(F)F` showed a TGI greater than 100 µM.

For `C=CC[C@]1(/C=N/O)CN(S(=O)(=O)CC[Si](C)(C)C)C[C@H]2CC=CC[C@H]21`, the TGI was greater than 100 µM.

`COc1ccc(-c2c(C(C)=O)c(-c3ccccc3)n(C3OC(CO)C(O)C(O)C3O)c(=S)c2C#N)cc1` (stereo not drawn) yielded a TGI greater than 100 µM.

As for `O=C1C2=Cc3ccccc3OC2(O)Oc2cc3ccccc3cc21` (stereo not drawn), the TGI was greater than 100 µM.

Another experiment deals with CAKI-1 renal. The experiment in a line: NCI anticancer screen, dose series, 48 h.
As to `CN(C)/C=C/C(=CC=[N+](C)C)/C=C/N(C)C`, the TGI was greater than 100 µM.

Turning to `CNC1(c2cc3ccccc3s2)CCCCC1`, the TGI was greater than 100 µM.

Regarding `N#C[S-].[La+3].c1cnc2c(c1)ccc1cccnc12.c1cnc2c(c1)ccc1cccnc12.c1cnc2c(c1)ccc1cccnc12`, the TGI is 12.7 µM.

With `CNc1ncccc1Nc1cc(=O)n2c3cccnc3n(C)c2c1`, the TGI is greater than 100 µM.

As for `CC1(C)C2CCC1(C)C(N/C(Sc1ccccc1)=C(/C(Cl)=C(Cl)Cl)[N+](=O)[O-])C2` (stereo not drawn), the TGI came to 28.5 µM.

Take `COC(=O)[C@@H]1C[C@H]2OC(=O)CC[C@]2(C)O[C@H]1[C@H]1O[C@@](C)(O)CCC[C@H]1C`: the TGI was greater than 50 µM.

Turning to `CN(/N=C/c1ccc(C(=O)O)cc1)C1=NCCCCN1`, the TGI was greater than 100 µM.

Take `C=C(C)C1CCC(C(=O)O)CC1` (stereo not drawn): the TGI is greater than 100 µM.

Consider `Cc1c(N2C(=O)C(Cl)C2/C=C/c2ccccc2)c(=O)n(-c2ccccc2)n1C` (stereo not drawn), for which the TGI is greater than 100 µM.

`O=c1[nH]c2cc(C(F)(F)F)ccc2nc1C(F)(F)F` had a TGI of 89.9 µM.

Regarding `C=CC[C@]1(/C=N/O)CN(S(=O)(=O)CC[Si](C)(C)C)C[C@H]2CC=CC[C@H]21`, the TGI was found to be 42.8 µM.

With `CCN1C[C@]2(C)CC[C@H](O)C34C1C(C[C@@H]32)[C@@]1(O)CC[C@H]2C[C@@H]4[C@@H]1[C@H]2O`, the TGI is greater than 100 µM.

In turn, `COc1ccc(-c2c(C(C)=O)c(-c3ccccc3)n(C3OC(CO)C(O)C(O)C3O)c(=S)c2C#N)cc1` (stereo not drawn) registered a TGI greater than 100 µM.

The molecule `CCCCCCCC(CC(=O)NC(CO)C(=O)NC(CO)CC(C)C)OC(=O)CC(CCCCCCC)OC(=O)CC(CCCCCCC)OC1OC(C)C(O)C(OC2OC(C)C(OC(C)=O)C(O)C2O)C1O` (stereo not drawn) yielded a TGI of 29 µM.

`O=C1C2=Cc3ccccc3OC2(O)Oc2cc3ccccc3cc21` (stereo not drawn): the TGI was greater than 100 µM.

Take `CC1(c2cccc(C3CC4(CCC3=O)OCCCCO4)c2)OCCO1` (stereo not drawn): the TGI was greater than 100 µM.

The next experiment deals with HOP-92 NSCLC. The experiment in a line: NCI anticancer screen, dose series, 48 h.
For the molecule `CC1(C)OCN(c2ccc(N3CCOCC3)cc2)Cn2c1nc1ccccc12`, the TGI is greater than 100 µM.

In turn, `CC1C2CC(C(S(=O)(=O)O)C2=O)C1(C)C` (stereo not drawn) had a TGI greater than 100 µM.

In the case of `CN(C)/C=C/C(=CC=[N+](C)C)/C=C/N(C)C`, the TGI was greater than 100 µM.

For the molecule `CNC1(c2cc3ccccc3s2)CCCCC1`, the TGI was determined as 61.6 µM.

For the molecule `N#C[S-].[La+3].c1cnc2c(c1)ccc1cccnc12.c1cnc2c(c1)ccc1cccnc12.c1cnc2c(c1)ccc1cccnc12`, the TGI stood at 18 µM.

Take `O=S(Cc1ccccc1)c1nc2ccccc2nc1-c1cccs1` (stereo not drawn): the TGI was 29.8 µM.

Take `C=C(C)C1CCC(C(=O)O)CC1` (stereo not drawn): the TGI is greater than 100 µM.

`Cc1c(N2C(=O)C(Cl)C2/C=C/c2ccccc2)c(=O)n(-c2ccccc2)n1C` (stereo not drawn): the TGI was found to be 50.2 µM.

On to `O=c1[nH]c2cc(C(F)(F)F)ccc2nc1C(F)(F)F`, for which the TGI was determined as 45.2 µM.

For `CCOC(=O)Nc1cc2c(c(N)n1)N=C(c1ccc(OC)cc1)CN2`, the TGI turned out to be 48.2 µM.

On to `CCN1C[C@]2(C)CC[C@H](O)C34C1C(C[C@@H]32)[C@@]1(O)CC[C@H]2C[C@@H]4[C@@H]1[C@H]2O`, for which the TGI was greater than 100 µM.

For `CCC(CC)NC1=C(NC(C)=O)C(=O)c2ccccc2C1=O`, the TGI is greater than 50 µM.

Regarding `CCCCCCCC(CC(=O)NC(CO)C(=O)NC(CO)CC(C)C)OC(=O)CC(CCCCCCC)OC(=O)CC(CCCCCCC)OC1OC(C)C(O)C(OC2OC(C)C(OC(C)=O)C(O)C2O)C1O` (stereo not drawn), the TGI was 21 µM.

In the case of `O=C1C2=Cc3ccccc3OC2(O)Oc2cc3ccccc3cc21` (stereo not drawn), the TGI was greater than 100 µM.

For another experiment, the system named is SK-OV-3 ovarian. The experiment in a line: NCI anticancer screen, dose series, 48 h.
`CC1(C)OCN(c2ccc(N3CCOCC3)cc2)Cn2c1nc1ccccc12` registered a TGI greater than 100 µM.

The molecule `CC1C2CC(C(S(=O)(=O)O)C2=O)C1(C)C` (stereo not drawn) displayed a TGI greater than 100 µM.

`CN(C)/C=C/C(=CC=[N+](C)C)/C=C/N(C)C` yielded a TGI greater than 100 µM.

With `CNC1(c2cc3ccccc3s2)CCCCC1`, the TGI is greater than 100 µM.

Regarding `N#C[S-].[La+3].c1cnc2c(c1)ccc1cccnc12.c1cnc2c(c1)ccc1cccnc12.c1cnc2c(c1)ccc1cccnc12`, the TGI worked out at 14.1 µM.
